Experimental data: EP0143016A1, “Derivatives of 4-(3-alkynyloxy-2-hydroxy-propyl)-piperazin-1-yl-N-phenyl acetamide, their preparation and their therapeutical use” (RIOM LABORATOIRES- C.E.R.M. "R.L.-CERM" - (S.A.), priority 1983, dated 1985)

Columns and labels:
chien anesthésié [1] = experiment: Hemodynamic effects in the anesthetized dog: heart rate; type: in vivo; conditions: duration of action (durée d'action), unit not given; dog anesthetized with chloralose; 5 mg.kg^-1 I.V.
Protocol: (§1) L'activité anti-angineuse des composés de l'invention a été étudiée chez l'animal en recherchant leurs effets hémodynamiques sur le chien anesthésié, conformément au protocole résumé ci-après.
(§2) Chez le chien anesthésié au chloralose (100 mg.kg^-1 I.V.), les paramètres suivants sont enregistrés : • - fréquence cardiaque à l'aide d'électrodes à E C G sous-cutanée reliées à un cardiotachymètre BECKMAN (dérivation D II) • - débit artériel coronaire enregistré par l'intermédiaire d'un débitmètre électromagnétique STATHAN® • - on étudie aussi l'action antitachycardisante en mesurant son activité inhibitrice des effets chronotropes positifs de l'isoprénaline.
(§3) Les différents paramètres sont enregistrés en continu sur un dynographe BECKMAN®, et on mesure en même temps la durée d'action.
(§4) Les composés de l'invention sont administrés par voie I.V. à la dose de 5 mg.kg^-1.
(§5) Les résultats enregistrés, exprimés sous forme de pourcentage de variation, sont résumés dans le tableau I ci-après.

chien anesthésié [2] = experiment: Hemodynamic effects in the anesthetized dog: coronary arterial flow; type: in vivo; conditions: duration of action (durée d'action), unit not given; dog anesthetized with chloralose; 5 mg.kg^-1 I.V.
Protocol: as §1, §2, §3, §4, §5

[3] = system: effets chronotropes positifs de l'isoprénaline; experiment: Antitachycardic action in the anesthetized dog: inhibition of the positive chronotropic effects of isoprenaline; type: in vivo, chien; conditions: duration of action (durée d'action), unit not given; isoprenaline tachycardia; dog anesthetized with chloralose; 5 mg.kg^-1 I.V.
Protocol: as §1, §2, §3, §4, §5

Structure (SMILES): C#CC1(OCC(O)CN2CCN(CC(=O)Nc3ccc(Cl)cc3C(=O)c3ccccc3Cl)CC2)CCCCC1 (stereo not drawn) [compound 4, 4-[3-(1-ethynyl-cyclohexyloxy)-2-hydroxy-propyl]-piperazin-1-yl-N-[4-chloro-2-(2-chlorobenzoyl)-phenyl] acetamide]
- FREQUENCE CARDIAQUE D (chien anesthésié [1]): >15
- DEBIT CORONAIRE D (chien anesthésié [2]): 1
- ANTITACHY-CARDIE D [3]: 35

Structure (SMILES): C#CC(C)(OCC(O)CN1CCN(CC(=O)Nc2ccc(Cl)cc2C(=O)c2ccccc2Cl)CC1)c1ccccc1 (stereo not drawn) [compound 6, 4-[3-(α-ethynyl-α-methyl-benzyloxy)-2-hydroxy-propyl]-piperazin-1-yl-N-[2-(2-chlorobenzoyl)-4-chloro-phenyl]acetamide]
- FREQUENCE CARDIAQUE D (chien anesthésié [1]): >45
- DEBIT CORONAIRE D (chien anesthésié [2]): 3
- ANTITACHY-CARDIE D [3]: 15

Structure (SMILES): CC#CC1(OCC(O)CN2CCN(CC(=O)Nc3ccc(Cl)cc3C(=O)c3ccccc3Cl)CC2)CCCCC1 (stereo not drawn) [compound 9]
- FREQUENCE CARDIAQUE D (chien anesthésié [1]): 5
- DEBIT CORONAIRE D (chien anesthésié [2]): 2
- ANTITACHY-CARDIE D [3]: 5

Structure (SMILES): C#CC(C)(OCC(O)CN1CCN(CC(=O)N(C)c2ccc(Cl)cc2C(=O)c2ccccc2)CC1)c1ccccc1 (stereo not drawn) [compound 10]
- FREQUENCE CARDIAQUE D (chien anesthésié [1]): 15
- DEBIT CORONAIRE D (chien anesthésié [2]): 0,5
- ANTITACHY-CARDIE D [3]: 15

Structure (SMILES): CC#CC1(OCC(O)CN2CCN(CC(=O)N(C)c3ccc(Cl)cc3C(=O)c3ccccc3)CC2)CCCCC1 (stereo not drawn) [compound 2]
- FREQUENCE CARDIAQUE D (chien anesthésié [1]): 60
- DEBIT CORONAIRE D (chien anesthésié [2]): 3
- ANTITACHY-CARDIE D [3]: 60

Structure (SMILES): C#CC1(OCC(O)CN2CCN(CC(=O)N(C)c3ccc(Cl)cc3C(=O)c3ccccc3)CC2)CCCCC1 (stereo not drawn) [compound 7]
- FREQUENCE CARDIAQUE D (chien anesthésié [1]): >15
- DEBIT CORONAIRE D (chien anesthésié [2]): 2
- ANTITACHY-CARDIE D [3]: 5
